Measured values published in US12371454B2, “Cyclic peptide compound having Kras inhibitory action” (priority 2019, dated 2025).
Starred links: 1 amine or outer side, 2 acyl side, 3 side chain; linkers in the order of their positions; H or OH if unused. Positions of bridges follow the written chain, without caps; N, C: chain ends. Non-standard residues stand in square brackets, D forms with d. Residues, ends and D or L forms follow the SMILES beside them. *: point of attachment. hPhe(3,5-F2-4-CF3) = N[C@@H](CCc1cc(F)c(C(F)(F)F)c(F)c1)C(=O)O; hPhe(3-Cl-4-CF3) = N[C@@H](CCc1ccc(C(F)(F)F)c(Cl)c1)C(=O)O; NMePhe(4-CF3) = CN[C@@H](Cc1ccc(C(F)(F)F)cc1)C(=O)O; Thiomorpholino(1,1-dioxo) = O=S1(=O)CCN(*)CC1; 3Oxa8azabicyclo(3.2.1)octane = C1CC2COCC1N2*; NMeAbu(4,4,4-F3) = CN[C@@H](CC(F)(F)F)C(=O)O; X51 = O=C([C@H](Cc1cc(F)cc(I)c1)N[*:1])[*:2]; NMePhe(4-Me) = CN[C@@H](Cc1ccc(C)cc1)C(=O)O; NMePhe(4-F) = CN[C@@H](Cc1ccc(F)cc1)C(=O)O; X41 = O=C([C@H](Cc1cccc(I)c1F)N[*:1])[*:2]; X53 = O=C([C@H](Cc1cccc(F)c1F)N[*:1])[*:2]; X83 = O=C([C@H](Cc1cncc(Br)c1)N[*:1])[*:2]; Phe(3-I) = N[C@@H](Cc1cccc(I)c1)C(=O)O; Pro(4,4-F2) = O=C(O)[C@@H]1CC(F)(F)CN1; NMeY = CN[C@@H](Cc1ccc(O)cc1)C(=O)O; NMeCha = CN[C@@H](CC1CCCCC1)C(=O)O; Hyp = O=C(O)[C@@H]1C[C@@H](O)CN1; NMeChg = CN[C@H](C(=O)O)C1CCCCC1; NMeI = CC[C@H](C)[C@H](NC)C(=O)O; NMeD = CN[C@@H](CC(=O)O)C(=O)O; NMeL = CN[C@@H](CC(C)C)C(=O)O; Oxazolidin(3-yl) = C1CN(*)CO1; NMeNva = CCC[C@H](NC)C(=O)O; NMeV = CN[C@H](C(=O)O)C(C)C; d(β3hA) = C[C@@H](N)CC(=O)O; NMeAbu = CC[C@H](NC)C(=O)O; Morpholide = C1CN(*)CCO1; NMeA = CN[C@@H](C)C(=O)O; NMeAib = CNC(C)(C)C(=O)O; Nle = CCCC[C@H](N)C(=O)O; Piperidide = C1CCN(*)CC1; Pra = C#CC[C@H](N)C(=O)O; Pyrrolidide = C1CCN(*)C1; Ac5c = NC1(C(=O)O)CCCC1; Aze = O=C(O)[C@@H]1CCN1; CF3 = FC(F)(F)*; Sar = CNCC(=O)O

Target: T1, Kras and SOS1 (biotin-tagged human Kras loaded with GDP, His-tagged human SOS1) (Homo sapiens, UniProt P01116, G12D)
T1 construct: made in house; host or cells: E. coli (stated for Kras only)
Assay: Protein-protein interaction inhibition between Kras and SOS1 (KrasGl2D-SOS PPI) using AlphaScreen
Format: binding
Conditions: AlphaScreen; biotin-tagged human Kras loaded with GDP, His-tagged human SOS1; read-out: KRAS G12D-SOS PPI IC50
Outline: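 AlphaScreen format: Ni donor beads capture His-SOS1, streptavidin acceptor beads capture biotinylated Kras (E. coli-expressed, GDP-loaded post-purification). Excite 680 nm, read 520-620 nm.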

T1 sequence (P01116 1-188 isoform P01116-2 G12D): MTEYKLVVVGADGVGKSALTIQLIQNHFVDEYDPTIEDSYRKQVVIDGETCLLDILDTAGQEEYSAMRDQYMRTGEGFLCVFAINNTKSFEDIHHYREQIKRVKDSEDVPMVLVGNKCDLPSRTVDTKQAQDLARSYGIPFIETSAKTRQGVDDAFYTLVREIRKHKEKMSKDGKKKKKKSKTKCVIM

## C#CC[C@@H]1NC(=O)[C@H](Cc2cccc(I)c2)NC(=O)CN(C)C(=O)[C@H](Cc2ccc(OC(F)(F)F)cc2)N(C)C(=O)CN(C)C(=O)CN(C)C(=O)[C@H]([C@@H](C)CC)NC(=O)[C@H](CC(C)C)N(C)C(=O)C[C@@H](C(=O)N2CCCCC2)N(C)C(=O)[C@H](CC(C)C)NC(=O)C(C)(C)N(C)C1=O [Compound 1219] ([NMeL]I[Sar][Sar][NMeY](CF3)[Sar][Phe(3-I)][Pra][NMeAib]L[NMeD]-Piperidide; lactam N-11)
  IC50: 16 nM

## CCCC[C@@H]1NC(=O)[C@H](Cc2cc(F)cc(I)c2)NC(=O)CN(C)C(=O)[C@H](Cc2ccc(OC)cc2)N(C)C(=O)[C@@H]2CCN2C(=O)[C@H](C)N(C)C(=O)[C@H]([C@@H](C)CC)NC(=O)[C@H](CC)N(C)C(=O)C[C@@H](C(=O)N2CCCCC2)N(C)C(=O)[C@H](CC(C)C)NC(=O)C(C)(C)N(C)C1=O [Compound 1226] ([NMeAbu]I[NMeA][Aze][NMeY](Me)[Sar][X51][Nle][NMeAib]L[NMeD]-Piperidide; lactam N-11)
  IC50: 15 nM

## C#CC[C@@H]1NC(=O)[C@H](Cc2cccc(I)c2)NC(=O)CN(C)C(=O)[C@H](Cc2ccc(F)cc2)N(C)C(=O)[C@@H]2CCN2C(=O)[C@H](C)N(C)C(=O)[C@H]([C@@H](C)CC)NC(=O)[C@H](CC(C)C)N(C)C(=O)C[C@@H](C(=O)N2CCCCC2)N(C)C(=O)[C@H](CC(C)C)NC(=O)C(C)(C)N(C)C1=O [Compound 1230] ([NMeL]I[NMeA][Aze][NMePhe(4-F)][Sar][Phe(3-I)][Pra][NMeAib]L[NMeD]-Piperidide; lactam N-11)
  IC50: 98 nM

## CCC[C@H]1C(=O)N[C@@H]([C@@H](C)CC)C(=O)N(C)CC(=O)N(C)CC(=O)N(C)[C@@H](CC2CCCCC2)C(=O)N(C)CC(=O)N[C@@H](CCc2ccc(C(F)(F)F)c(Cl)c2)C(=O)N2CC(F)(F)C[C@H]2C(=O)NC2(CCCC2)C(=O)N(C)[C@@H](C2CCCCC2)C(=O)N(C)[C@H](C(=O)N2CCCC2)CC(=O)N1C [Compound 1232] ([NMeNva]I[Sar][Sar][NMeCha][Sar][hPhe(3-Cl-4-CF3)][Pro(4,4-F2)][Ac5c][NMeChg][NMeD]-Pyrrolidide; lactam N-11)
  IC50: 0.47 nM

## CC[C@H](C)[C@@H]1NC(=O)[C@H](CC(C)C)N(C)C(=O)C[C@@H](C(=O)N2CCS(=O)(=O)CC2)N(C)C(=O)[C@H](C(C)C)N(C)C(=O)C2(CCCC2)NC(=O)[C@@H]2CCCN2C(=O)[C@H](CCc2ccc(C(F)(F)F)c(Cl)c2)NC(=O)CN(C)C(=O)[C@H](CC2CCCCC2)N(C)C(=O)[C@@H]2CCN2C(=O)[C@H](C)N(C)C1=O [Compound 1238] ([NMeL]I[NMeA][Aze][NMeCha][Sar][hPhe(3-Cl-4-CF3)]P[Ac5c][NMeV][NMeD]-{Thiomorpholino(1,1-dioxo)}; lactam N-11)
  IC50: 9.9 nM

## CC[C@H](C)[C@@H]1NC(=O)[C@H](CC(C)C)N(C)C(=O)C[C@@H](C)NC(=O)[C@H](C)N(C)C(=O)C2(CCCC2)NC(=O)[C@@H]2CCCN2C(=O)[C@H](CCc2ccc(C(F)(F)F)c(Cl)c2)NC(=O)CN(C)C(=O)[C@H](Cc2ccc(C)cc2)N(C)C(=O)[C@@H]2CCN2C(=O)[C@H](C)N(C)C1=O [Compound 1239] (cyclo([Ac5c][NMeA][d(β3hA)][NMeL]I[NMeA][Aze][NMePhe(4-Me)][Sar][hPhe(3-Cl-4-CF3)]P))
  IC50: 180 nM

## CCCC[C@@H]1NC(=O)[C@H](Cc2cncc(Br)c2)NC(=O)CN(C)C(=O)[C@H](Cc2ccc(OC)cc2)N(C)C(=O)[C@@H]2CCN2C(=O)[C@H](C)N(C)C(=O)[C@H]([C@@H](C)CC)NC(=O)[C@H](CC)N(C)C(=O)C[C@@H](C(=O)N2CCCCC2)N(C)C(=O)[C@H](CC(C)C)NC(=O)C(C)(C)N(C)C1=O [Compound 1240] ([NMeAbu]I[NMeA][Aze][NMeY](Me)[Sar][X83][Nle][NMeAib]L[NMeD]-Piperidide; lactam N-11)
  IC50: 290 nM

## CC[C@H](C)[C@@H]1NC(=O)[C@H](CC(C)C)N(C)C(=O)C[C@@H](C(=O)N2CCCCC2)N(C)C(=O)[C@H](C(C)C)N(C)C(=O)C2(CCCC2)NC(=O)[C@H](C)N(C)C(=O)[C@H](CCc2ccc(C(F)(F)F)c(Cl)c2)NC(=O)CN(C)C(=O)[C@H](CC2CCCCC2)N(C)C(=O)[C@@H]2CCN2C(=O)[C@H](C)N(C)C1=O [Compound 1243] ([NMeL]I[NMeA][Aze][NMeCha][Sar][hPhe(3-Cl-4-CF3)][NMeA][Ac5c][NMeV][NMeD]-Piperidide; lactam N-11)
  IC50: 27 nM

## CC[C@H](C)[C@@H]1NC(=O)[C@H](CC(F)(F)F)N(C)C(=O)C[C@@H](C(=O)N2CCCC2)N(C)C(=O)[C@H](C2CCCCC2)N(C)C(=O)C2(CCCC2)NC(=O)[C@@H]2CCCN2C(=O)[C@H](CCc2cc(F)c(C(F)(F)F)c(F)c2)NC(=O)CN(C)C(=O)[C@H](Cc2ccc(C(F)(F)F)cc2)N(C)C(=O)CN(C)C(=O)CN(C)C1=O [Compound 1244] ([NMeAbu(4,4,4-F3)]I[Sar][Sar][NMePhe(4-CF3)][Sar][hPhe(3,5-F2-4-CF3)]P[Ac5c][NMeChg][NMeD]-Pyrrolidide; lactam N-11)
  IC50: 0.63 nM

## CC[C@H](C)[C@@H]1NC(=O)[C@H](CC(F)(F)F)N(C)C(=O)C[C@@H](C(=O)N2CCCC2)N(C)C(=O)[C@H](C2CCCCC2)N(C)C(=O)C2(CCCC2)NC(=O)[C@@H]2CC(F)(F)CN2C(=O)[C@H](CCc2ccc(C(F)(F)F)c(Cl)c2)NC(=O)CN(C)C(=O)[C@H](Cc2ccc(C)cc2)N(C)C(=O)CN(C)C(=O)CN(C)C1=O [Compound 1245] ([NMeAbu(4,4,4-F3)]I[Sar][Sar][NMePhe(4-Me)][Sar][hPhe(3-Cl-4-CF3)][Pro(4,4-F2)][Ac5c][NMeChg][NMeD]-Pyrrolidide; lactam N-11)
  IC50: 0.54 nM

## CC[C@H](C)[C@@H]1NC(=O)[C@H](CC(C)C)N(C)C(=O)C[C@@H](C(=O)N2CCOC2)NC(=O)[C@H]([C@@H](C)CC)N(C)C(=O)C2(CCCC2)NC(=O)[C@@H]2CCCN2C(=O)[C@H](CCc2ccc(C(F)(F)F)c(Cl)c2)NC(=O)CN(C)C(=O)[C@H](CC2CCCCC2)N(C)C(=O)CN(C)C(=O)CN(C)C1=O [Compound 1247] ([NMeL]I[Sar][Sar][NMeCha][Sar][hPhe(3-Cl-4-CF3)]P[Ac5c][NMeI]D-{Oxazolidin(3-yl)}; lactam N-11)
  IC50: 4.8 nM

## CCCC[C@@H]1NC(=O)[C@H](Cc2cccc(I)c2F)NC(=O)CN(C)C(=O)[C@H](Cc2ccc(OC)cc2)N(C)C(=O)[C@@H]2CCN2C(=O)[C@H](C)N(C)C(=O)[C@H]([C@@H](C)CC)NC(=O)[C@H](CC)N(C)C(=O)C[C@@H](C(=O)N2CCCCC2)N(C)C(=O)[C@H](CC(C)C)NC(=O)C(C)(C)N(C)C1=O [Compound 1249] ([NMeAbu]I[NMeA][Aze][NMeY](Me)[Sar][X41][Nle][NMeAib]L[NMeD]-Piperidide; lactam N-11)
  IC50: 33 nM

## CCCC[C@@H]1NC(=O)[C@H](Cc2cccc(F)c2F)NC(=O)CN(C)C(=O)[C@H](Cc2ccc(OC)cc2)N(C)C(=O)[C@@H]2CCN2C(=O)[C@H](C)N(C)C(=O)[C@H]([C@@H](C)CC)NC(=O)[C@H](CC)N(C)C(=O)C[C@@H](C(=O)N2CCCCC2)N(C)C(=O)[C@H](CC(C)C)NC(=O)C(C)(C)N(C)C1=O [Compound 1256] ([NMeAbu]I[NMeA][Aze][NMeY](Me)[Sar][X53][Nle][NMeAib]L[NMeD]-Piperidide; lactam N-11)
  IC50: 9.1 nM

## CC[C@H](C)[C@@H]1NC(=O)[C@H](CC(C)C)N(C)C(=O)C[C@@H](C(=O)N2C3CCC2COC3)NC(=O)[C@H]([C@@H](C)CC)N(C)C(=O)C2(CCCC2)NC(=O)[C@@H]2CCCN2C(=O)[C@H](CCc2ccc(C(F)(F)F)c(Cl)c2)NC(=O)CN(C)C(=O)[C@H](CC2CCCCC2)N(C)C(=O)CN(C)C(=O)CN(C)C1=O [Compound 1257] ([NMeL]I[Sar][Sar][NMeCha][Sar][hPhe(3-Cl-4-CF3)]P[Ac5c][NMeI]D-{3Oxa8azabicyclo(3.2.1)octane}; lactam N-11)
  IC50: 6.5 nM

## C#CC[C@@H]1NC(=O)[C@H](Cc2cccc(I)c2)NC(=O)CN(C)C(=O)[C@H](Cc2ccc(C(F)(F)F)cc2)N(C)C(=O)[C@@H]2CCN2C(=O)[C@H](C)N(C)C(=O)[C@H]([C@@H](C)CC)NC(=O)[C@H](CC(C)C)N(C)C(=O)C[C@@H](C(=O)N2CCCCC2)N(C)C(=O)[C@H](CC(C)C)NC(=O)C(C)(C)N(C)C1=O [Compound 1258] ([NMeL]I[NMeA][Aze][NMePhe(4-CF3)][Sar][Phe(3-I)][Pra][NMeAib]L[NMeD]-Piperidide; lactam N-11)
  IC50: 26 nM

## CC[C@H](C)[C@@H]1NC(=O)[C@H](CC(F)(F)F)N(C)C(=O)C[C@@H](C(=O)N2CCOCC2)N(C)C(=O)[C@H](C2CCCCC2)N(C)C(=O)C2(CCCC2)NC(=O)[C@@H]2CC(F)(F)CN2C(=O)[C@H](CCc2cc(F)c(C(F)(F)F)c(F)c2)NC(=O)CN(C)C(=O)[C@H](Cc2ccc(C(F)(F)F)cc2)N(C)C(=O)CN(C)C(=O)CN(C)C1=O [Compound 1260] ([NMeAbu(4,4,4-F3)]I[Sar][Sar][NMePhe(4-CF3)][Sar][hPhe(3,5-F2-4-CF3)][Pro(4,4-F2)][Ac5c][NMeChg][NMeD]-Morpholide; lactam N-11)
  IC50: 0.54 nM

## CCO[C@@H]1C[C@H]2C(=O)NC3(CCCC3)C(=O)N(C)[C@@H]([C@@H](C)CC)C(=O)N(C)[C@H](C(=O)N3CCOCC3)CC(=O)N(C)[C@@H](CC(C)C)C(=O)N[C@@H]([C@@H](C)CC)C(=O)N(C)[C@@H](C)C(=O)N3CC[C@H]3C(=O)N(C)[C@@H](Cc3ccc(C(F)(F)F)cc3)C(=O)N(C)CC(=O)N[C@@H](CCc3cc(F)c(C(F)(F)F)c(F)c3)C(=O)N2C1 [Compound 1261] ([NMeL]I[NMeA][Aze][NMePhe(4-CF3)][Sar][hPhe(3,5-F2-4-CF3)][Hyp](Et)[Ac5c][NMeI][NMeD]-Morpholide; lactam N-11)
  IC50: 0.65 nM
